Data set [1] has as its system fibrin-induced microglia activation. Description: Image-based assay of fibrin-induced microglia activation (HTS and dose response). Format: cell-based, rat. The note with it: for inhibition at 10 µM / IC50: Rattus norvegicus, Microglia; for inhibition at 10 µM: read-out: Fibrin % inhibition.
For data set [2], the system named is LPS-induced microglia activation. Description: Image-based assay of LPS-induced microglia activation (HTS and dose response). Format: cell-based, rat.
For data set [3], the system named is fibrin- and LPS-induced microglia activation. The experiment in a line: cells. The note with it: for inhibition at 10 µM: Rattus norvegicus, Microglia. It counts as cell-based, rat.
Data set [4] concerns primary rat microglia.
Where [5] appears, read: quadrant by fibrin and LPS inhibition in HTS of 1907 compounds.
Where [6] appears, read: Rattus norvegicus, Microglia, 48 h, read-out: LPS % inhibition.
[7] abbreviates: Rattus norvegicus, Microglia, read-out: LPS % inhibition.
Where [8] appears, read: primary microglia HTS, fibrin stimulation, compounds at 10 μM.
Where [9] appears, read: Rattus norvegicus, Microglia, primary microglia HTS, LPS stimulation, compounds at 10 μM; read-out: LPS % inhibition.
Setting [10] is: classification by fibrin and LPS inhibition, HTS at 10 μM.
Setting [11] is: quadrant by fibrin and LPS inhibition, HTS at 10 μM.
The mark [12] stands for this setting: primary microglia HTS, fibrin stimulation, increased cell size (>800 μm^2) as marker of activation.

From patent publication US20210330611A1, “THERAPY FOR NEUROLOGICAL DISEASES/DISORDERS” (priority 2020, published 2021) come the findings set out here.

Structures can show the parent of a compound that is named as a salt. Where two headings read alike, the source gives them in different places. A value given as a limit tells only on which side of the number the result lay.

In the case of `CCN1CCN(C(=O)N[C@@H](C(=O)N[C@@H]2C(=O)N3[C@@H]2SC(C)(C)[C@@H]3C(=O)O)c2ccccc2)C(=O)C1=O` [Piperacillin Sodium], the inhibition at 10 µM in data set [1] (primary microglia HTS, fibrin stimulation, cell size >800 μm2 as marker of activation) was -25%; in data set [2] (Rattus norvegicus, Microglia, 48 h; read-out: LPS % inhibition), 17%. Moreover, the “Quadrant (FIG. 5b)” value in data set [3] (classification by fibrin and LPS inhibition in HTS) was “Q4”. Moreover, in data set [4] (rat), the “LPS % cell toxicity” value was determined as 0%.
Turning to `O=P1(NCCCl)OCCCN1CCCl` (centres unmarked) [Ifosfamide], the inhibition at 10 µM is -11% in data set [1] (primary microglia HTS, fibrin stimulation, activation = cell size >800 μm2) and 10% in data set [2] (Rattus norvegicus, Microglia, 48 h, primary microglia HTS, LPS stimulation, activation = cell size >800 μm2; read-out: LPS % inhibition). For the same compound, the “Quadrant (FIG. 5b)” value in data set [3] (setting [5]) was “Q4”. Moreover, the “LPS % cell toxicity” value in data set [4] (rat) is 0%.
Take `CC(C)NCC(O)COc1cccc2ccccc12` (centres unmarked) [Propranolol]: in data set [1], the Fibrin % inhibition is listed as −30%. Moreover, the inhibition at 10 µM in data set [2] (setting [6]) was found to be 2%. In data set [3], the “Quadrant (FIG. 5b)” value is “Q4”. In addition, in data set [4] (rat), the “LPS % cell toxicity” value is 0%.
On to `CN1CCC(OC(c2ccccc2)c2ccccc2)CC1` [Diphenylpyraline], for which the inhibition at 10 µM in data set [1] was -69%; in data set [2] (setting [7]) it was 6%. The “Quadrant (FIG. 5b)” value in data set [3] is on record as “Q4”. In addition, in data set [4] (rat), the “LPS % cell toxicity” value is on record as 0%.
On to `CCN1CCN(c2cc3c(cc2F)c(=O)c(C(=O)O)cn3C2CC2)CC1` [Enrofloxacin], for which the inhibition at 10 µM in data set [1] (setting [8]) stood at 5%; in data set [2] (setting [9]), 23%. Besides, in data set [3] (setting [10]), the “Quadrant (FIG. 5b)” value is on record as “Q4”. Besides, in data set [4] (rat), the “LPS % cell toxicity” value was found to be 1%.
For `CNCCCC12CCC(c3ccccc31)c1ccccc12` [Maprotiline], the Fibrin % inhibition in data set [1] was −4%. The compound also registered an LPS % inhibition in data set [2] of 78%. The “LPS % cell toxicity” value in data set [4] (rat) turned out to be 2%.
Turning to `C[C@H](N[C@@H](CCc1ccccc1)C(=O)O)C(=O)N1CCC[C@H]1C(=O)O` [Enalaprilat], the Fibrin % inhibition in data set [1] (setting [8]) stood at 25%. In data set [2] (primary microglia HTS, LPS stimulation, compounds at 10 μM), this compound yielded an LPS % inhibition of 18%. In data set [3] (setting [10]), the “Quadrant (FIG. 5b)” value is “Q4”. In data set [4], the “LPS % cell toxicity” value amounted to 0%.
`NCCS(=O)(=O)O` [2-Aminoethanesulfonic Acid]: the values for the inhibition at 10 µM in data set [1] (setting [8]) and in data set [2] (setting [9]) were -13% and 19%, respectively. Also, the “Quadrant (FIG. 5b)” value in data set [3] (setting [11]) is given as “Q4”. The “LPS % cell toxicity” value in data set [4] (rat) came out at 0%.
For the compound `CCN(CC)CCNC(=O)c1cc(Br)c(N)cc1OC` [Bromopride], the inhibition at 10 µM is -2% in data set [1] (primary HTS, 10 μM, fibrin-stimulated primary microglia) and 4% in data set [2] (Rattus norvegicus, Microglia, primary HTS, 10 μM, LPS-stimulated primary microglia; read-out: LPS % inhibition). Also, in data set [3] (primary HTS, 10 μM), the “Quadrant (FIG. 5b)” value is reported as “Q4”. In addition, the “LPS % cell toxicity” value in data set [4] (rat) is 0%.
With `CNCC(O)c1ccc(O)c(O)c1` (centres unmarked) [Racepinephrine], the figures for the inhibition at 10 µM in data set [1] and in data set [2] (setting [6]) were 27% and 29%, respectively. For the same compound, the “Quadrant (FIG. 5b)” value in data set [3] is “Q4”. The “LPS % cell toxicity” value in data set [4] (rat) came to 0%.
`CC(Cc1ccccc1)(NC(=O)CN)c1ccccc1` (centres unmarked) [Remacemide Hydrochloride]: the results for the inhibition at 10 µM in data set [1] and in data set [2] (setting [6]) were -21% and 13%, respectively. Moreover, in data set [3], the “Quadrant (FIG. 5b)” value is on record as “Q4”. The “LPS % cell toxicity” value in data set [4] (rat) worked out at 0%.
On to `CC(=O)O[C@H]1C[C@@H]2CC[C@@H]3[C@H](CC[C@@]4(C)[C@H]3C[C@H]([N+]3(C)CCCCC3)[C@@H]4OC(C)=O)[C@@]2(C)C[C@@H]1[N+]1(C)CCCCC1` [Pancuronium Bromide], for which the Fibrin % inhibition in data set [1] (setting [12]) worked out at 9%. Moreover, in data set [2] (primary microglia HTS, LPS stimulation; increased cell size (>800 μm^2) as marker of activation), the LPS % inhibition was 11%. Moreover, the “Quadrant (FIG. 5b)” value in data set [3] (setting [5]) was “Q4”. In data set [4] (rat), the “LPS % cell toxicity” value came to 0%.
For the compound `CCN1CCN(C(=O)N[C@@H](C(=O)N[C@@H]2C(=O)N3[C@@H]2SC(C)(C)[C@@H]3C(=O)O)c2ccccc2)C(=O)C1=O` [Piperacillin], the inhibition at 10 µM in data set [1] (setting [8]) was determined as 103%; in data set [2] (setting [9]), 80%. In addition, in data set [3] (setting [11]), the “Quadrant (FIG. 5b)” value is reported as “Q2”. Besides, the “LPS % cell toxicity” value in data set [4] (rat) is reported as 2%.
`OCCN(CCO)c1nc(N2CCCCC2)c2nc(N(CCO)CCO)nc(N3CCCCC3)c2n1` [Dipyridamole]: the inhibition at 10 µM was 11% in data set [1] and 6% in data set [2] (setting [7]). For the same compound, in data set [3], the “Quadrant (FIG. 5b)” value is reported as “Q4”. Further, the “LPS % cell toxicity” value in data set [4] (rat) was 0%.
Regarding `CN1CCN(CCCN2c3ccccc3Sc3ccc(Cl)cc32)CC1` [Prochlorperazine], the inhibition at 10 µM in data set [1] was determined as 6%; in data set [2] (setting [6]), 17%. Further, the “LPS % cell toxicity” value in data set [4] (rat) stood at 1%.
With `O=C(CCCl)NCc1ccccc1` [Beclamide], the inhibition at 10 µM was 19% in data set [1] (setting [8]) and 2% in data set [2] (setting [9]). Further, in data set [3] (setting [11]), the “Quadrant (FIG. 5b)” value is listed as “Q4”. The “LPS % cell toxicity” value in data set [4] (rat) was 0%.
Consider `CC1(C)[C@@H](O)CC[C@]2(C)[C@H]3C(=O)C=C4[C@@H]5C[C@@](C)(C(=O)O)CC[C@]5(C)CC[C@@]4(C)[C@]3(C)CC[C@@H]12` [Enoxolone], for which the inhibition at 10 µM was -40% in data set [1] (setting [8]) and 7% in data set [2] (setting [9]). Moreover, the “Quadrant (FIG. 5b)” value in data set [3] (setting [10]) was “Q4”. Besides, the “LPS % cell toxicity” value in data set [4] (rat) amounted to 0%.
With `CCCCCCCCCCCCCCCC(=O)NCCO` [Palmidrol], the inhibition at 10 µM is -40% in data set [1] and 7% in data set [2] (setting [6]). Moreover, in data set [3], the “Quadrant (FIG. 5b)” value is recorded as “Q4”. Besides, the “LPS % cell toxicity” value in data set [4] (rat) is 0%.
On to `CCN(CC)Cc1cc(Nc2ccnc3cc(Cl)ccc23)ccc1O` [Amodiaquine Dihydrochloride], for which the inhibition at 10 µM in data set [1] (setting [12]) turned out to be 4%; in data set [2] (Rattus norvegicus, Microglia, 48 h, primary microglia HTS, LPS stimulation; increased cell size (>800 μm^2) as marker of activation; read-out: LPS % inhibition) it was 114%. In data set [3] (setting [5]), the “Quadrant (FIG. 5b)” value is recorded as “Q1”. Also, the “LPS % cell toxicity” value in data set [4] (rat) is given as 85%.
In the case of `CCCN(CCC)CCc1cccc2c1CC(=O)N2` [Ropinirole], the inhibition at 10 µM is -26% in data set [1] and 15% in data set [2] (setting [6]). Also, in data set [3], the “Quadrant (FIG. 5b)” value is listed as “Q4”. The “LPS % cell toxicity” value in data set [4] (rat) is on record as 0%.
For `C#C[C@]1(O)CC[C@H]2[C@@H]3CCC4=CC(=O)CC[C@]4(C)[C@H]3CC[C@@]21C` [Ethisterone], the values for the inhibition at 10 µM in data set [1] (setting [8]) and in data set [2] (setting [9]) were -5% and 13%, respectively. The “Quadrant (FIG. 5b)” value in data set [3] (setting [10]) is on record as “Q4”. Further, the “LPS % cell toxicity” value in data set [4] (rat) stood at 1%.
Consider `NC(=O)c1ncn([C@@H]2O[C@H](CO)[C@@H](O)[C@H]2O)n1` [Ribavirin, reference compound], for which the IC50 in data set [1] (48 h, read-out: Fibrin IC50) stood at 1 µM; in data set [1] (read-out: Fibrin IC50 (uM)), 1 µM; in data set [1] (read-out: Fibrin IC50 (uM) (Suppl. Table 7)), 1 µM; in data set [2] (Rattus norvegicus, Microglia, 48 h, read-out: LPS IC50) it was 2 µM; in data set [2] (Rattus norvegicus, Microglia, read-out: LPS IC50 (uM)) it was 2 µM; in data set [2] (Rattus norvegicus, Microglia, read-out: LPS IC50 (uM) (Suppl. Table 7)) it was 2 µM. The inhibition at 10 µM in data set [1] is 102%; in data set [2] (setting [6]) it was 107%; in data set [3] (read-out: Cherry-picked Hit (Suppl. Table 7)), over 50%; in data set [3] (read-out: Hit), over 50%. The “Quadrant (FIG. 5b)” value in data set [3] was “Q2”. Besides, in data set [4] (rat), the “LPS % cell toxicity” value turned out to be 3%.
With `NCCc1c[nH]cn1` [Histamine], the inhibition at 10 µM in data set [1] worked out at 21%; in data set [2] (setting [6]), 27%. Besides, in data set [3], the “Quadrant (FIG. 5b)” value was “Q4”. The “LPS % cell toxicity” value in data set [4] (rat) is 0%.
In the case of `CCc1cc(C(N)=S)ccn1` [Ethionamide], the values for the inhibition at 10 µM in data set [1] and in data set [2] (setting [7]) were 17% and 14%, respectively. In addition, the “Quadrant (FIG. 5b)” value in data set [3] is recorded as “Q4”. Moreover, the “LPS % cell toxicity” value in data set [4] (rat) was 0%.
Regarding `CC(NC(C)(C)C)C(=O)c1cccc(Cl)c1.Cl` (centres unmarked), the Fibrin % inhibition in data set [1] (10 µM) is reported as −15%. For the same compound, the LPS % inhibition in data set [2] (10 µM) was 27%. Besides, the “Quadrant (FIG. 5b)” value in data set [3] is reported as “Q4”. Moreover, the “LPS % cell toxicity” value in data set [4] is 2%.
Take `CC(=O)N[C@@H](CS)C(=O)O` [Acetylcysteine]: the inhibition at 10 µM in data set [2] (setting [9]) worked out at 7%. Moreover, the LPS % inhibition in data set [2] (primary microglia HTS, LPS stimulation, compounds at 10 μM; 10 µM) worked out at 13%. In addition, the “Quadrant (FIG. 5b)” value in data set [3] (setting [11]) is recorded as “Q4”. For the same compound, the “LPS % cell toxicity” value in data set [4] (rat) stood at 0%.
